# Results published in patent US8580784B2, “Method for treating a disease related to the glucocorticoid receptor” (Santen Pharmaceutical Co., Ltd., priority 2006, dated 2013).
# Target: T1, Recombinant human GR (Homo sapiens, UniProt P04150)
# T1 construct: purchased Invitrogen P2816
# T1 sequence (P04150 1-777): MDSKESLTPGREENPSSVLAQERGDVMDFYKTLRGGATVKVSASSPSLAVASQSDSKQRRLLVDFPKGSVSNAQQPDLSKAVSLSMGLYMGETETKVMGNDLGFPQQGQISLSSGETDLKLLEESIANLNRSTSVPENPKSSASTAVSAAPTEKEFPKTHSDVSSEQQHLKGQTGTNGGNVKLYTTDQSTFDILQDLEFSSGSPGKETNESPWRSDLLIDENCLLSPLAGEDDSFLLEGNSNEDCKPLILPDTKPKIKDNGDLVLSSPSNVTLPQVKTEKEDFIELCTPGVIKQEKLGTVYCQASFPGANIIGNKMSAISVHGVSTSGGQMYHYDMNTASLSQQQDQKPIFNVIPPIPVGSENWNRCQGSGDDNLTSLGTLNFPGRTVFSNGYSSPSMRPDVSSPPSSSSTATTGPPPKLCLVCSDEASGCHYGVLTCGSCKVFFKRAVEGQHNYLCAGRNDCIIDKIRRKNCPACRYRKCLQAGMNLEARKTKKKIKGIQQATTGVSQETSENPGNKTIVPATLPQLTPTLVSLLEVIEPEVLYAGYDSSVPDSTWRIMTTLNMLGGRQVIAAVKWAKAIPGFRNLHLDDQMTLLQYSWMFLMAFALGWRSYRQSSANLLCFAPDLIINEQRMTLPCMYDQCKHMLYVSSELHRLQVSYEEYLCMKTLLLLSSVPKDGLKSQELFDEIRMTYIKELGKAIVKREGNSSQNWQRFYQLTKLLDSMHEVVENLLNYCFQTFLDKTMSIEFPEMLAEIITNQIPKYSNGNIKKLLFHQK
# Test: Evaluation test for binding activity to glucocorticoid receptor: receptor competitor assay by fluorescence polarization (Invitrogen GR competitor assay kit, cat No. P2816)
# Conditions: 20 μM test compound solution, 10 μL per well plus 5 μL 4×GS1 and 5 μL 4×GR solution; room temperature 2 to 4 hours; a ratio of 100% or more is indicated by 100%
# Description: A detailed explanation of this matter will be described in the section of “Pharmacological Test” in Examples described below. In order to find the usefulness of the present compound as a pharmaceutical, a glucocorticoid receptor competitor assay was carried out by a fluorescence polarization method by using a glucocorticoid receptor competitor assay kit (manufactured by Invitrogen, cat No. P2816) to study the glucocorticoid receptor binding activity of the present compound.
# 1. Evaluation Test for Binding Activity to Glucocorticoid Receptor (hereinafter referred to as “GR”)
# In order to evaluate a binding activity to GR, a receptor competitor assay was carried out by a fluorescence polarization method. In the assay, a GR competitor assay kit (manufactured by Invitrogen, cat No. P2816) was used, and a procedure was carried out according to the protocol attached to the kit. Hereinafter, the specific method will be described.
# (Preparation of Reagents)
# GR screening buffer: A buffer containing 10 mM potassium phosphate (pH 7.4), 20 mM sodium molybdate (Na2MoO4), 0.1 mM ethylene diamine tetraacetic acid (EDTA), 5 mM dithiothreitol (DTT), 0.1 mM stabilizing peptide and 2% dimethylsulfoxide was prepared.
# 4×GS1 solution: Fluormone™ GS1, which is a fluorescent glucocorticoid ligand, was diluted with GR screening buffer, whereby a 4 nM solution was prepared.
# 4×GR solution: Recombinant human GR was diluted with GR screening buffer, whereby a 16 nM solution was prepared.
# (Preparation of Test Compound Solution)
# After a test compound was dissolved in dimethylsulfoxide, the resulting solution was diluted with GR screening buffer, whereby a 20 μM test compound solution was prepared.
# (Test Method and Measurement Method)
# 1) The test compound solution was added in an amount of 10 μL into each well of a 384-well plate, and then, 4×GS1 solution and 4×GR solution were added in an amount of 5 μL into each well, respectively.
# 2) The plate was incubated in a dark place at room temperature for 2 to 4 hours.
# 3) By using a multimode plate reader, Analyst™ HT (manufactured by LJL Biosystems), fluorescence polarization of each well was measured. As the blank, a well containing GR screening buffer in place of the test compound and 4×GS1 solution was used.
# 4) The same procedure as that in the above 1) to 3) was carried out except that GR screening buffer was used in place of the test compound solution, and the obtained result was taken as the negative control.
# 5) The same procedure as that in the above 1) to 3) was carried out except that 2 mM dexamethasone was used in place of the test compound solution, and the obtained result was taken as the positive control.
# (Calculation Equation of GR Binding Ratio)
# A GR binding ratio (%) was calculated from the following equation. GR binding ratio(%)=100×[1−(fluorescence polarization of test compound solution−fluorescence polarization of positive control solution)/(fluorescence polarization of negative control solution−fluorescence polarization of positive control solution)] (Test Results and Discussion)
inhibition at 20 µM (stock) [%],SMILES,inhibition at 20 µM [%]
,"COc1ccccc1NCc1c(-c2ccc(OC(=O)Nc3cccnc3)cc2OC)ccc2c1C(C)=CC(C)(C)N2 [Compound 4-3, 5-(2-Methoxyphenylaminomethyl)-6-[2-methoxy-4-(pyridin-3-ylaminocarbonyloxy)phenyl]-2,2,4-trimethyl-1,2-dihydroquioline]",91
100,"COc1cc(OC(=O)c2ccccc2SC)ccc1-c1ccc2c(c1CNc1cc(F)ccc1C)C(C)=CC(C)(C)N2 [Compound 1-39, 5-(5-Fluoro-2-methylphenylaminomethyl)-6-[4-(2-methylthiobenzoyloxy)-2-methoxyphenyl]-2,2,4-trimethyl-1,2-dihydroquinoline]",
92,"COc1ccccc1NCc1c(-c2ccc(OC(=O)c3ccc(C)nc3)cc2OC)ccc2c1C(C)=CC(C)(C)N2 [Compound 1-31, 6-[2-Methoxy-4-(6-methylpyridin-3-ylcarbonyloxy)phenyl]-5-(2-methoxyphenylaminomethyl)-2,2,4-trimethyl-1,2-dihydroquinoline]",
93,"COc1ccccc1NCc1c(-c2ccc(OC(=O)c3ccccc3C)cc2OC)ccc2c1C(C)=CC(C)(C)N2 [Compound 1-5, 6-[2-Methoxy-4-(2-methylbenzoyloxy)phenyl]-5-(2-methoxyphenylaminomethyl)-2,2,4-trimethyl-1,2-dihydroquinoline]",
86,"COc1ccccc1NCc1c(-c2ccc(OC(=O)c3ccc(F)cc3)cc2OC)ccc2c1C(C)=CC(C)(C)N2 [Compound 1-23, 6-[4-(4-Fluorobenzoyloxy)-2-methoxyphenyl]-5-(2-methoxyphenylaminomethyl)-2,2,4-trimethyl-1,2-dihydroquinoline]",
100,"COc1cc(OC(=O)c2ccncc2)ccc1-c1ccc2c(c1CNc1cc(F)ccc1C)C(C)=CC(C)(C)N2 [Compound 1-34, 5-(5-Fluoro-2-methylphenylaminomethyl)-6-[2-methoxy-4-(pyridin-4-ylcarbonyloxy)phenyl]-2,2,4-trimethyl-1,2-dihydroquinoline]",
94,"COc1ccccc1NCc1c(-c2ccc(OC(=O)c3cscn3)cc2OC)ccc2c1C(C)=CC(C)(C)N2 [Compound 1-30, 5-(2-Methoxyphenylaminomethyl)-6-[2-methoxy-4-(thiazol-4-ylcarbonyloxy)phenyl]-2,2,4-trimethyl-1,2-dihydroquinoline]",
100,"COc1ccccc1NCc1c(-c2ccc(OC(=O)c3ccncc3)cc2OC)ccc2c1C(C)=CC(C)(C)N2 [Compound 1-13, 5-(2-Methoxyphenylaminomethyl)-6-[2-methoxy-4-(pyridin-4-ylcarbonyloxy)phenyl]-2,2,4-trimethyl-1,2-dihydroquinoline]",
99,"COc1cc(OC(=O)c2ccco2)ccc1-c1ccc2c(c1CNc1cc(F)ccc1C)C(C)=CC(C)(C)N2 [Compound 1-17, 5-(5-Fluoro-2-methylphenylaminomethyl)-6-[4-(furan-2-ylcarbonyloxy)-2-methoxyphenyl]-2,2,4-trimethyl-1,2-dihydroquinoline]",
100,"COc1cc(OS(C)(=O)=O)ccc1-c1ccc2c(c1CNc1cc(F)ccc1C)C(C)=CC(C)(C)N2 [Compound 2-11, 5-(5-Fluoro-2-methylphenylaminomethyl)-6-(2-methoxy-4-methylsulfonyloxyphenyl)-2,2,4-trimethyl-1,2-dihydroquioline]",
